Consider 14 compounds from patent publication US20230365589A1, “NOVEL AMINE DERIVATIVES” (Sumitomo Pharma Co., Ltd., priority 2020, published 2023).

Common to all, as to assay type: biochemical
Assay [1] addresses T1, DYRK2 (Homo sapiens, UniProt Q92630).
T1 construct: purchased Carna Biosciences, Inc. 04-132
T1 sequence (Q92630 74-601 limits assumed): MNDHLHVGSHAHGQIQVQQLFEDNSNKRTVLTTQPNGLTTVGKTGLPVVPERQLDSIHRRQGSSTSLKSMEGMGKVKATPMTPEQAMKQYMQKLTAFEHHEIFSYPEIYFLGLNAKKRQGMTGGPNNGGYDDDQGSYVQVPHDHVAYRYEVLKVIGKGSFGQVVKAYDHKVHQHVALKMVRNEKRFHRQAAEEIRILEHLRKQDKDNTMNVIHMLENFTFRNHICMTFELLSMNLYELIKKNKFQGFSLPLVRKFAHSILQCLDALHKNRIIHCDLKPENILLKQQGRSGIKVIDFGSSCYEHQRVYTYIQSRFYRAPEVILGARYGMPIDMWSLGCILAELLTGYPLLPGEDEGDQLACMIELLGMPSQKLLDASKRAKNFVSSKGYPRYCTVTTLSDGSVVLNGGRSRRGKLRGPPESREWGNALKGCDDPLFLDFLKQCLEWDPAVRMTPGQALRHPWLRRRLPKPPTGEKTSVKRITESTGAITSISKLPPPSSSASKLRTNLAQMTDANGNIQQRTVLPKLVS
The assay can be described thus: Inhibition test on activity of DYRK family, mobility shift assay (MSA): DYRK2. In short, it runs like this:
(§1)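 Mobility-shift readout of FITC-DYRKtide phosphorylation in 20 mM HEPES pH 7.5. The substrate mix held 4 µM peptide, 20 mM MgCl2 and ATP at 100 (1A), 200 (1B), 40 (2) or 20 µM (3). Reaction 1 h at room temperature; IC50 from regression of P/(P+S)-based inhibition vs log concentration.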

The target of assay [2] is T2, DYRK1B (Homo sapiens, UniProt Q9Y463).
T2 construct: purchased Carna Biosciences, Inc. 04-131
The assay can be described thus: Inhibition test on activity of DYRK family, mobility shift assay (MSA): DYRK1B. The procedure: [Inhibition Test on Activity of DYRK Family (DYRK1A, DYRK1B, DYRK2, and DYRK3)]
The kinase activity was measured by mobility shift assay (MSA) method using QuickScout Screening Assist™ MSA (commercially available kit manufactured by Carna Biosciences, Inc.). The substrate of the kinase reaction used was an FITC-labeled DYRKtide peptide included in the kit. An assay buffer [20 mM HEPES, 0.01% Triton X-100™, 2 mM dithiothreitol, pH 7.5]was used to create a substrate mixture solution with a substrate (4 μM), MgCl2(20 mM), and ATP (DYRK1A: 100 μM; DYRK1B: 200 μM; DYRK2: 40 μM; and DYRK3: 20 μM). In addition, kinases (DYRK1A: manufactured by Carna Biosciences, Inc., Cat. No. 04-130; DYRK1B: manufactured by Carna Biosciences, Inc., Cat. No. 04-131; DYRK2; manufactured by Carna Biosciences, Inc., Cat. No. 04-132; and DYRK3; manufactured by Carna Biosciences, Inc., Cat. No. 04-133) were diluted with the assay buffer to prepare enzyme solutions (DYRK1A: 0.2 ng/μL; DYRK1B: 0.08 ng/μL; DYRK2: 0.04 ng/μL; and DYRK3: 0.25 ng/μL). The 10 mM solution of the test compound in DMSO was further diluted with DMSO to 10 levels of the concentration (0.00003 mM, 0.0001 mM, 0.0003 mM, 0.001 mM, 0.003 mM, 0.01 mM, 0.03 mM, 0.1 mM, 0.3 mM, and 1 mM), each of which was subjected to 25-fold dilution with the assay buffer to obtain a drug solution (4% DMSO solution). 5 μL of the drug solution or a control solution (4% DMSO-assay buffer), 5 μL of the substrate mixture solution, and 10 μL of the enzyme solution were mixed in the wells of a polypropylene 384-well plate and allowed to react at room temperature for 1 hour, and then the reaction was quenched by adding 60 μL of the termination buffer included in the kit. Subsequently, the quantities of the substrates (S) and the phosphorylated substrate (P) in the reaction solution were measured using LabChip EZ Reader II system (manufactured by Caliper Life Sciences) according to the protocol of the assay kit.
The heights of the peaks of the “substrate” and the “phosphorylated substrate” were expressed as S and P, respectively, and a blank containing the assay buffer instead of the enzyme solution was also measured.
The inhibition rate (%) of the test compound was calculated according to the following equation:
Inhibition rate (%)=(1−(C−A)/(B−A))×100 • wherein, A, B, and C represent P/(P+S) of the blank well, P/(P+S) of the control solution well, and P/(P+S) of the compound-containing well, respectively.
The IC50 value was calculated via a regression analysis of the inhibition rate and the test compound concentration (logarithmic value).
The inhibiting activities of representative compounds of the present invention are shown against DYRK1A, DYRK1B, DYRK2, and DYRK3 in Tables.

The target in assay [3] is T3, DYRK1A (Homo sapiens, UniProt Q13627).
T3 construct: purchased Carna Biosciences, Inc. 04-130
Description: Inhibition test on activity of DYRK family, mobility shift assay (MSA): DYRK1A. Put shortly: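 Mobility shift assay with recombinant DYRK1A (0.2 ng/μL enzyme solution), FITC-DYRKtide substrate (4 μM in substrate mix), 100 μM ATP in substrate mix, HEPES pH 7.5 buffer with MgCl2; 1 h at room temperature. Phosphorylated vs unphosphorylated peptide peaks quantified; IC50 from regression of inhibition rate against log concentration.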

In assay [4] the target is T4, DYRK3 (Homo sapiens, UniProt O43781).
T4 construct: purchased Carna Biosciences, Inc. 04-133
T4 sequence (O43781 1-568 isoform O43781-2): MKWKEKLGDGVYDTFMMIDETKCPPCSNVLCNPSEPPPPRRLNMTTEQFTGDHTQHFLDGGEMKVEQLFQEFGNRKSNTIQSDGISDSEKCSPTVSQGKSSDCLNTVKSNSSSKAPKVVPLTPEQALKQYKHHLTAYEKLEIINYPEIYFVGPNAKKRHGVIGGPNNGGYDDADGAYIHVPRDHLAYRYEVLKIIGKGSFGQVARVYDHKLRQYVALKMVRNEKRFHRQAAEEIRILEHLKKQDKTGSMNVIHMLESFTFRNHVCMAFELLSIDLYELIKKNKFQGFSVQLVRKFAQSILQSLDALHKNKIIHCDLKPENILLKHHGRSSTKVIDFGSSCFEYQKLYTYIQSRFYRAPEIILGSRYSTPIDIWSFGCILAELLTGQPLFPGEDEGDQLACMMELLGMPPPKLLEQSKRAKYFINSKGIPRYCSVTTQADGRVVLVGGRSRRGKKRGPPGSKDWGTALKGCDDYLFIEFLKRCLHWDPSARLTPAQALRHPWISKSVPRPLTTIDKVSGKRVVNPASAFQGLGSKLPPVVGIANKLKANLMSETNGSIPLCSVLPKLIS
Description: Inhibition test on activity of DYRK family, mobility shift assay (MSA): DYRK3. In short, it runs like this: as §1

The mark [5] stands for this setting: MSA, FITC-labeled DYRKtide peptide, ATP 40 μM, read-out: Inhibitory activity DYRK 2 (IC50 class).
Setting [6] is: MSA, FITC-labeled DYRKtide peptide, ATP 200 μM, read-out: Inhibitory activity DYRK 1B (IC50 class).
Setting [7] is: MSA, FITC-labeled DYRKtide peptide, ATP 100 μM, read-out: Inhibitory activity DYRK 1A (IC50 class).
Setting [8] is: MSA, FITC-labeled DYRKtide peptide, ATP 20 μM, read-out: Inhibitory activity DYRK 3 (IC50 class).

SMILES strings stand for the structures. Like-named read-outs stand apart in the source and are kept apart here.

T2 sequence (Q9Y463 whole entry): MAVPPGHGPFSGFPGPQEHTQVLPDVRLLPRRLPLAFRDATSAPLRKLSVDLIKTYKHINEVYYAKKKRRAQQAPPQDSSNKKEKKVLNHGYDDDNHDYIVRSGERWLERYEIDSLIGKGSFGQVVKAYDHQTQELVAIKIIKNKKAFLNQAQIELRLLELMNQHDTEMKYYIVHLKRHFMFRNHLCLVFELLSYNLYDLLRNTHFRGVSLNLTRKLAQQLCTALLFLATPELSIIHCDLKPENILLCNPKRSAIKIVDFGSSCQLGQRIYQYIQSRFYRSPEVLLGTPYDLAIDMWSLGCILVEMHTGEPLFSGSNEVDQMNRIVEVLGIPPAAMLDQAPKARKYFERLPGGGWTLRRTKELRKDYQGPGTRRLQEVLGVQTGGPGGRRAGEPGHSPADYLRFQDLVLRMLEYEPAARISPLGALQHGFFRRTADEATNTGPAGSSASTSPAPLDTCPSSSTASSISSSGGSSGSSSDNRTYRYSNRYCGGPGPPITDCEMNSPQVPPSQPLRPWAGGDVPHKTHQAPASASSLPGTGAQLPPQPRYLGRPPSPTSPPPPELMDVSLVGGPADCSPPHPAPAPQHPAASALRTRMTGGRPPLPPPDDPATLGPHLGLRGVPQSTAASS

Regarding `CN1CC[C@H]2NC(=O)N(c3nc4c5c(ccc4s3)OCC5)[C@H]2C1` (single isomer, unassigned) [Example 27], the IC50 in assay [1] (setting [5]), in assay [2] (setting [6]), in assay [3] (setting [7]) and in assay [4] (setting [8]) was no less than 1000 nM throughout.
For the compound `CN1CC[C@@H]2NC(=O)N(c3nc4c5c(ccc4s3)OCC5)[C@@H]2C1` (single isomer, unassigned) [Example 28], the IC50 in assay [1] (setting [5]) is no less than 1000 nM; in assay [2] (setting [6]) it was 10 to 100 nM; in assay [3] (setting [7]) it was 10 to 100 nM; in assay [4] (setting [8]), no less than 1000 nM.
As to `O=C1N[C@H]2CCN(C3CC3)C[C@H]2N1c1nc2c3c(ccc2s1)OCCO3` (single isomer, unassigned) [Example 34], the IC50 in assay [1] (setting [5]) is no less than 1000 nM; in assay [2] (setting [6]) it was 10 to 100 nM; in assay [3] (setting [7]) it was less than 10 nM; in assay [4] (setting [8]) it was no less than 1000 nM.
Regarding `O=C1N[C@H]2CCN(C3CC3)C[C@H]2N1c1nc2c3c(ccc2s1)OCO3` (single isomer, unassigned) [Example 36], the IC50 was no less than 1000 nM in assay [1] (setting [5]), less than 10 nM in assay [2] (setting [6]), less than 10 nM in assay [3] (setting [7]) and no less than 1000 nM in assay [4] (setting [8]).
In the case of `O=C1NC2CNCC2N1c1nc2c3c(ccc2s1)OCC3` (centres unmarked) [Example 3], the IC50 in assay [1] (setting [5]) is no less than 1000 nM; in assay [2] (setting [6]), 100 to 1000 nM; in assay [3] (setting [7]), 100 to 1000 nM; in assay [4] (setting [8]), 100 to 1000 nM.
Turning to `C[C@@H]1NC(=O)N(c2nc3c4c(ccc3s2)OCC4)[C@@H]1CN1CCOCC1` [Example 23, (4S,5R)-1-(7,8-dihydrofuro[3,2-e][1,3]benzothiazol-2-yl)-4-methyl-5-[(morpholin-4-yl)methyl]imidazolidin-2-one], the IC50 is 100 to 1000 nM in assay [1] (setting [5]), less than 10 nM in assay [2] (setting [6]), less than 10 nM in assay [3] (setting [7]) and 100 to 1000 nM in assay [4] (setting [8]).
With `C[C@H]1NC(=O)N(c2nc3c4c(ccc3s2)OCC4)[C@@H]1CN1CCOCC1` [Example 24, (4R,5R)-1-(7,8-dihydrofuro[3,2-e][1,3]benzothiazol-2-yl)-4-methyl-5-[(morpholin-4-yl)methyl]imidazolidin-2-one], the IC50 in assay [1] (setting [5]) is no less than 1000 nM; in assay [2] (setting [6]) it was 10 to 100 nM; in assay [3] (setting [7]) it was 10 to 100 nM; in assay [4] (setting [8]) it was no less than 1000 nM.
In the case of `C[C@H]1C[C@@H]2[C@H](CO1)NC(=O)N2c1nc2c3c(ccc2s1)OCC3` [Example 38, (3aR,6S,7aR)-1-(7,8-dihydrofuro[3,2-e][1,3]benzothiazol-2-yl)-6-methylhexahydropyrano[3,4-d]imidazol-2(3H)-one], the IC50 in assay [1] (setting [5]) is 100 to 1000 nM; in assay [2] (setting [6]), less than 10 nM; in assay [3] (setting [7]), less than 10 nM; in assay [4] (setting [8]), 100 to 1000 nM.
As for `C[C@H]1C[C@@H]2[C@H](CO1)NC(=O)N2c1nc2c3c(ccc2s1)OCCO3` [Example 39, (3aR,6S,7aR)-1-(7,8-dihydro[1,4]dioxino[2,3-e][1,3]benzothiazol-2-yl)-6-methylhexahydropyrano[3,4-d]imidazol-2(3H)-one], the IC50 in assay [1] (setting [5]) is 100 to 1000 nM; in assay [2] (setting [6]), less than 10 nM; in assay [3] (setting [7]) it was less than 10 nM; in assay [4] (setting [8]), 100 to 1000 nM.
Consider `O=C1N[C@H]2CO[C@@H](CF)C[C@H]2N1c1nc2c3c(ccc2s1)OCC3` [Example 40, (3aR,6R,7aR)-1-(7,8-dihydrofuro[3,2-e][1,3]benzothiazol-2-yl)-6-(fluoromethyl)hexahydropyrano[3,4-d]imidazol-2(3H)-one], for which the IC50 in assay [1] (setting [5]) is 100 to 1000 nM; in assay [2] (setting [6]), less than 10 nM; in assay [3] (setting [7]), less than 10 nM; in assay [4] (setting [8]), 10 to 100 nM.
For `O=C1N[C@H]2CO[C@@H](CF)C[C@H]2N1c1nc2c3c(ccc2s1)OCCO3` [Example 41, (3aR,6R,7aR)-1-(7,8-dihydro[1,4]dioxino[2,3-e][1,3]benzothiazol-2-yl)-6-(fluoromethyl)hexahydropyrano[3,4-d]imidazol-2(3H)-one], the IC50 in assay [1] (setting [5]) was 100 to 1000 nM; in assay [2] (setting [6]), less than 10 nM; in assay [3] (setting [7]), less than 10 nM; in assay [4] (setting [8]), 10 to 100 nM.
For `CC[C@H]1C[C@@H]2[C@H](CO1)NC(=O)N2c1nc2c3c(ccc2s1)OCC3` [Example 42, (3aR,6S,7aR)-1-(7,8-dihydrofuro[3,2-e][1,3]benzothiazol-2-yl)-6-ethylhexahydropyrano[3,4-d]imidazol-2(3H)-one], the IC50 is 100 to 1000 nM in assay [1] (setting [5]), less than 10 nM in assay [2] (setting [6]), less than 10 nM in assay [3] (setting [7]) and 100 to 1000 nM in assay [4] (setting [8]).
Regarding `CC[C@H]1C[C@@H]2[C@H](CO1)NC(=O)N2c1nc2c3c(ccc2s1)OCCO3` [Example 43, (3aR,6S,7aR)-1-(7,8-dihydro[1,4]dioxino[2,3-e][1,3]benzothiazol-2-yl)-6-ethylhexahydropyrano[3,4-d]imidazol-2(3H)-one], the IC50 in assay [1] (setting [5]) was 100 to 1000 nM; in assay [2] (setting [6]), less than 10 nM; in assay [3] (setting [7]), less than 10 nM; in assay [4] (setting [8]), 100 to 1000 nM.
`O=C1N[C@H]2COC[C@H]2N1c1nc2c3c(ccc2s1)OCC3` [Example 119]: the IC50 in assay [1] (read-out: Inhibitory activity DYRK 2), in assay [2] (read-out: Inhibitory activity DYRK 1B), in assay [3] (read-out: Inhibitory activity DYRK 1A) and in assay [4] (read-out: Inhibitory activity DYRK 3) was 10 to 100 nM in each case.
